In patent US6783966B1 (priority 2000, dated 2004):

Target: T1, α1,4 Gal-T (Homo sapiens, UniProt Q9NPC4)
T1 sequence (Q9NPC4 1-353): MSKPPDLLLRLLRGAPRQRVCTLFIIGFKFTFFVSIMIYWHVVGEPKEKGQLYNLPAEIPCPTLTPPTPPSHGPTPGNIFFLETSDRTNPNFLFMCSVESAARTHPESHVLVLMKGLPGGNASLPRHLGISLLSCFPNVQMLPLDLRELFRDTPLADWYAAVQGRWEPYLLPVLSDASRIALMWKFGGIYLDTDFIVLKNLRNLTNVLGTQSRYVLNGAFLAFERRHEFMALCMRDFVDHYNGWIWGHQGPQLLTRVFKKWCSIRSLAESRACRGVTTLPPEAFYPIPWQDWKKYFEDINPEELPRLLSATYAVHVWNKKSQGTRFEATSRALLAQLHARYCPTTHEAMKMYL
Experiment: Enzyme assay of α1,4 Gal-T in membrane fraction of transfected L cells
Conditions: for Km: acceptor substrate of α1,4 Gal-T, donor UDP-Gal; for significant levels of [14C] galactose incorporation (acceptor): potential acceptors, FIG. 4B
Experimental: The enzyme activity of α1,4 Gal-T in the membrane fraction was measured as descibed previously(ref.4). The reaction mixture for the assay contained the following in a volume of 50 μl:50 mM sodium cacodylate-HCl (pH 6.0), 10 mM MgCl2, 5 mM galactonolactone (Sigma), 0.3% Triton X-100 (Sigma), 0.4 mM (LacCer), 2.9 mM phosphatidylglycerol (Sigma), 0.2 mM UDP-Gal (Sigma), UDP-[^14C] Gal (2.5×10^5 dpm) (NEN), and membrane fraction containing 50 μg protein. The protein concentration was determined by Lowry's methods(ref.20). The products was isolated by a C18 Sep-Pak cartridge (Waters, Milford, Mass.) and analyzed by thin layer chromatography (TLC) and autoradiography using a Bio-Imaging Analyzer BAS2000 (Fuji Film, Tokyo).
Enzyme activity toward other potential acceptors was also examined (FIG. 4B).

Substance | Km | significant levels of [14C] galactose incorporation (acceptor)
galactosylceramide | 132 µM | significant levels
lactosylceramide [LacCer] | 54.5 µM | significant levels
